Laboratory results from ChEMBL document CHEMBL3763039, “Development and Characterization of Potent Cyclic Acyldepsipeptide Analogues with Increased Antimicrobial Activity” (2016).
Converted amounts (≈) assume the structure as drawn. Where a SMILES comes first, the peptide text is derived from it. Bridges are numbered along the chain shown (N, C = ends). [ ]: non-standard residue; d: D form. The star is where a group is joined. Phe(3,5-F2) = N[C@@H](Cc1cc(F)cc(F)c1)C(=O)O; Pro(4R-Me) = C[C@H]1CN[C@H](C(=O)O)C1; aThr = C[C@H](O)[C@H](N)C(=O)O; Pip = O=C(O)[C@@H]1CCCCN1; NMeA = CN[C@@H](C)C(=O)O; X1 = CCC/C=C/C=C/C(=O)*

Experiments:
Type in all cases: functional
Neisseria gonorrhoeae = test: Antibacterial activity against chloramphenicol-resistant Neisseria gonorrhoeae N.279 incubated for 16 to 18 hrs by broth microdilution method
Staphylococcus aureus [1] = test: Antibacterial activity against methicillin-resistant Staphylococcus aureus 1784A incubated for 16 to 18 hrs by broth microdilution method
Neisseria meningitidis [2] = test: Antibacterial activity against Neisseria meningitidis H44/76 incubated for 16 to 18 hrs by broth microdilution method
Escherichia coli [3] = test: Antibacterial activity against Escherichia coli MC4100 expressing lptD-4213 incubated for 16 to 18 hrs by broth microdilution method
Neisseria meningitidis [4] = test: Antibacterial activity against clpP deficient Neisseria meningitidis H44/76 incubated for 16 to 18 hrs by broth microdilution method
Enterococcus faecalis = test: Antibacterial activity against vancomycin-resistant Enterococcus faecalis V583 incubated for 16 to 18 hrs by broth microdilution method
Escherichia coli [5] = test: Antibacterial activity against Escherichia coli MC4100 incubated for 16 to 18 hrs by broth microdilution method
Staphylococcus aureus [6] = test: Antibacterial activity against Staphylococcus aureus subsp. aureus Newman clinical isolate incubated for 16 to 18 hrs by broth microdilution method
Listeria innocua = test: Antibacterial activity against Listeria innocua incubated for 16 to 18 hrs by broth microdilution method
Staphylococcus aureus [7] = test: Antibacterial activity against Staphylococcus aureus ATCC 29213 incubated for 16 to 18 hrs by broth microdilution method
Bacillus subtilis = test: Antibacterial activity against Bacillus subtilis PY79 incubated for 16 to 18 hrs by broth microdilution method
Streptococcus pneumoniae = test: Antibacterial activity against Streptococcus pneumoniae D39 incubated for 16 to 18 hrs by broth microdilution method
Pseudomonas aeruginosa = test: Antibacterial activity against Pseudomonas aeruginosa PAO1 incubated for 16 to 18 hrs by broth microdilution method

| SMILES | MIC (Neisseria gonorrhoeae) [µg/mL] | MIC (Staphylococcus aureus [1]) [µg/mL] | MIC (Neisseria meningitidis [2]) [µg/mL] | MIC (Escherichia coli [3]) [µg/mL] | MIC (Neisseria meningitidis [4]) [µg/mL] | MIC (Enterococcus faecalis) [µg/mL] | MIC (Escherichia coli [5]) [µg/mL] | MIC (Staphylococcus aureus [6]) [µg/mL] | MIC (Listeria innocua) [µg/mL] | MIC (Staphylococcus aureus [7]) [µg/mL] | MIC (Bacillus subtilis) [µg/mL] | MIC (Streptococcus pneumoniae) [µg/mL] | MIC (Pseudomonas aeruginosa) [µg/mL] |
| --- | --- | --- | --- | --- | --- | --- | --- | --- | --- | --- | --- | --- | --- |
| CCCC/C=C/C(=O)N[C@@H](Cc1cc(F)cc(F)c1)C(=O)N[C@@H]1C(=O)N2CCC[C@H]2C(=O)N2CC[C@H](C)C[C@H]2C(=O)N[C@@H](C)C(=O)N2C[C@H](C)C[C@H]2C(=O)O[C@H]1C | 0.125 (≈ 0.156 µM) | 8 (≈ 10 µM) | 0.0625 (≈ 0.0782 µM) | > 128 | > 128 | 0.0156 (≈ 0.0195 µM) | > 128 | 0.25 (≈ 0.313 µM) | ≤ 0.0625 | 0.0078 (≈ 0.00976 µM) | ≤ 0.0625 | ≤ 0.0625 | > 128 |
| C[C@@H]1C[C@H]2C(=O)O[C@@H](C)[C@H](NC(=O)[C@H](Cc3cc(F)cc(F)c3)NC(=O)/C=C/CC3CCCCC3)C(=O)N3CCC[C@H]3C(=O)N3CCCC[C@H]3C(=O)N[C@@H](C)C(=O)N2C1 | 0.125 (≈ 0.152 µM) | 0.125 (≈ 0.152 µM) | 0.0625 (≈ 0.0758 µM) | > 128 | > 128 | 0.0078 (≈ 0.00945 µM) | > 128 | 0.0625 (≈ 0.0758 µM) | ≤ 0.0625 | 0.0078 (≈ 0.00945 µM) | ≤ 0.0625 | 0.0625 (≈ 0.0758 µM) | > 128 |
| CCC/C=C/C=C/C(=O)N[C@@H](Cc1cc(F)cc(F)c1)C(=O)N[C@@H]1C(=O)N2CCC[C@H]2C(=O)N2CCCC[C@H]2C(=O)N[C@@H](C)C(=O)N2C[C@H](C)C[C@H]2C(=O)O[C@H]1C (X1-[Phe(3,5-F2)][aThr]P[Pip]A[Pro(4R-Me)]; ester 2-C) | 0.0078 (≈ 0.00979 µM) | 0.125 (≈ 0.157 µM) | 0.0313 (≈ 0.0393 µM) | 4 (≈ 5.02 µM) | > 128 | 0.0039 (≈ 0.00489 µM) | > 128 | 0.0625 (≈ 0.0784 µM) | ≤ 0.0625 | 0.0019 (≈ 0.00238 µM) | ≤ 0.0625 | ≤ 0.0625 | > 128 |
| CCCC/C=C/C(=O)N[C@@H](Cc1cc(F)cc(F)c1)C(=O)N[C@@H]1C(=O)N2CCC[C@H]2C(=O)N2CCCC[C@H]2C(=O)N[C@@H](C)C(=O)N2C[C@H](C)C[C@H]2C(=O)O[C@H]1C | 0.0625 (≈ 0.0796 µM) | 0.125 (≈ 0.159 µM) | 0.0625 (≈ 0.0796 µM) | > 128 | > 128 | 0.0078 (≈ 0.00994 µM) | > 128 | 0.0625 (≈ 0.0796 µM) | ≤ 0.0625 | 0.0039 (≈ 0.00497 µM) | ≤ 0.0625 | ≤ 0.0625 | > 128 |
| CCC/C=C/C=C/C(=O)N[C@@H](Cc1ccccc1)C(=O)N[C@H]1COC(=O)[C@@H]2C[C@@H](C)CN2C(=O)[C@H](C)NC(=O)[C@H](C)N(C)C(=O)[C@@H]2CCCN2C1=O (X1-FSP[NMeA]A[Pro(4R-Me)]; ester 2-C) | 0.0156 (≈ 0.0216 µM) | 0.5 (≈ 0.694 µM) | 0.0313 (≈ 0.0434 µM) | > 128 | > 128 | 0.125 (≈ 0.173 µM) | > 128 | 0.25 (≈ 0.347 µM) | ≤ 0.0625 | 0.5 (≈ 0.694 µM) | 0.125 (≈ 0.173 µM) | ≤ 0.0625 | > 128 |
